The test system of one series is HeLa. The experiment in a line: Antiproliferative activity against human HeLa cells assessed as cell viability after 48 hrs by MTT assay. The format is functional, cell-based.
Series [1] is described as follows: Antiproliferative activity against human Bel7402 cells assessed as cell viability after 48 hrs by MTT assay. The format is functional, cell-based. The conditions noted are these: Bel-7402, 48 h.
A further series has as its system MCF7. Description: Antiproliferative activity against human MCF7 cells assessed as cell viability after 48 hrs by MTT assay. The format is functional, cell-based. The conditions noted are these: MCF7, 48 h.
A short description of series [2]: Inhibition of rat liver TrxR assessed as increase in absorbance by DTNB assay.
The subject of the next series is A549. The experiment in a line: Antiproliferative activity against human A549 cells assessed as cell viability after 48 hrs by MTT assay. The format is functional, cell-based. The conditions noted are these: A549, 48 h.
For series [3], the species on record is Rattus norvegicus. Description: Inhibition of rat liver TrxR assessed as increase in absorbance at 10 uM by DTNB assay.
Series [4] can be described thus: Aqueous solubility of the compound in phosphate buffer at pH 7.4. The format is physicochemical.
The species entered for series [5] is Rattus norvegicus. Description: Inhibition of rat liver TrxR assessed as increase in absorbance at 50 uM by DTNB assay.
The subject of series [6] is Bel-7402. Description: Induction of apoptosis in human Bel7402 cells assessed as apoptotic cells at 50 uM after 48 hrs by flow cytometry (reference value: 0.73%). The format is functional.
The nature of series [7]: Cell cycle arrest in human Bel7402 cells assessed as cells accumulation at G2/M phase at 50 uM after 48 hrs by flow cytometry (reference value: 16.61%). The format is functional, cell-based. The conditions noted are these: Bel-7402.
Series [8] is described as follows: Cell cycle arrest in human Bel7402 cells assessed as cells accumulation at G1 phase at 50 uM after 48 hrs by flow cytometry (reference value: 62.60%). The format is functional, cell-based. To be noted: Bel-7402.
The subject of series [9] is Bel-7402. Description: Induction of apoptosis in human Bel7402 cells assessed as detection error cells at 50 uM after 48 hrs by flow cytometry (reference value: 0.43%). In kind it is functional.
The nature of series [10]: Cell cycle arrest in human Bel7402 cells assessed as cells accumulation at Sub-G1 phase at 50 uM after 48 hrs by flow cytometry (reference value: 1.47%). To be noted: Bel-7402. In kind it is functional, cell-based.
A short description of series [11]: Cell cycle arrest in human Bel7402 cells assessed as cells accumulation at S phase at 50 uM after 48 hrs by flow cytometry (reference value: 13.99%). The format is functional, cell-based. To be noted: Bel-7402.
Series [12] has as its system Bel-7402. The experiment in a line: Induction of apoptosis in human Bel7402 cells assessed as necrotic cells at 50 uM after 48 hrs by flow cytometry (reference value: 0.19%). The format is functional.
In series [13] the test system is Bel-7402. Description: Induction of apoptosis in human Bel7402 cells assessed as live cells at 50 uM after 48 hrs by flow cytometry (reference value: 98.65%). The format is functional.

Structures are written as SMILES. Calls of active or inactive are those of the source. The rule behind the calls is not given here.

On to `COc1cc(/C=C/c2ccc(-n3[se]c4ccccc4c3=O)cc2)cc(OC)c1OC`, for which the IC50 with HeLa stood at 5.67 µM; in series [1], 1.11 µM; in the series with MCF7, 3.97 µM; in [2], 5.78 µM; with A549 it was 3.11 µM.
As to `COc1ccc(/C=C/c2ccc(N3Cc4ccccc4C3=O)cc2)cc1OC`, in the series listed under Rattus norvegicus [3], the inhibition entry was “inactive”. Also, the IC50 (with HeLa; in [1]; in the series with MCF7; in the series with A549) was over 10 µM throughout. This compound also returned a solubility in series [4] of under 10 µM.
In the case of `COc1cc(/C=C/c2ccc(-n3[se]c4cc(F)ccc4c3=O)cc2)cc(OC)c1`, in the series filed under Rattus norvegicus [3], the inhibition is 36.6%. In addition, the IC50 with HeLa came to 0.64 µM; in [1], 0.99 µM; with MCF7, 0.51 µM; in the series with A549 it was 1.22 µM. In addition, the solubility in [4] was under 10 µM.
For `COc1cc(/C=C/c2ccc(-n3[se]c4cc(Cl)ccc4c3=O)cc2)cc(OC)c1`, the inhibition in the series filed under Rattus norvegicus [3] turned out to be 36.4%. In addition, the IC50 came out at 0.23 µM in the series on HeLa, 0.79 µM in series [1], 0.47 µM with MCF7 and 0.52 µM in the series with A549. This compound returned a solubility in series [4] of under 10 µM.
On to `Oc1ccc(/C=C/c2cc(O)cc(O)c2)cc1` [RESVERATROL], for which the inhibition in the series filed under Rattus norvegicus [5] is 26.1%. Further, the IC50 is 47.9 µM in the series with HeLa, 50.7 µM in series [1], over 100 µM in the series on MCF7 and over 100 µM in the series with A549. Further, the Activity in the series on Bel-7402 [6] came out at 13.2%; in series [7], 31.2%; in series [8], 59%; with Bel-7402 [9] it was 0.03%; in [10], 0.15%; in series [11], 9.83%. For the same compound, the Activity in the series on Bel-7402 [12] is on record as 0.01%; in the series with Bel-7402 [13], 85.3%.
Consider `COc1cc(/C=C/c2ccc(-n3[se]c4ccccc4c3=O)cc2)cc(OC)c1`, for which the IC50 in the series on HeLa was 3.8 µM; in series [1], 3.49 µM; in the series with MCF7, 7.78 µM; in series [2], 8.27 µM; with A549, 3.73 µM. The compound also came in with a solubility in series [4] of over 100 µM.
On to `COc1cccc(/C=C/c2ccc(-n3[se]c4ccccc4c3=O)cc2)c1`, for which the half-inhibitory concentration (IC50) was 7.34 µM in the series on HeLa; 13.2 µM in series [1]; 9.62 µM with MCF7; 12.8 µM in [2]; 10.4 µM with A549.
Take `O=c1c2ccccc2[se]n1-c1ccccc1` [EBSELEN]: the IC50 in the series on HeLa was 78.5 µM; in series [1] it was 68.2 µM; in the series with MCF7, over 100 µM; in series [2], 8.54 µM; in the series with A549, over 100 µM. Further, the Activity in the series on Bel-7402 [6] turned out to be 7.94%; in series [7] it was 21.2%; in series [8], 58.7%; in the series with Bel-7402 [9] it was 0.56%; in series [10], 3.32%; in series [11], 11.2%. The Activity with Bel-7402 [12] turned out to be 0.72%; in the series on Bel-7402 [13] it was 90.8%.
Consider `O=c1c2ccccc2[se]n1-c1ccc(/C=C/c2ccccc2)cc1`, for which the inhibition in the series listed under Rattus norvegicus [3] came out at 22.4%. For the same compound, the half-inhibitory concentration (IC50) turned out to be 35.7 µM in the series on HeLa, 12.4 µM in series [1], 24.8 µM in the series on MCF7 and 23.8 µM with A549.
With `COc1cc(/C=C\c2ccc(-n3[se]c4ccccc4c3=O)cc2)cc(OC)c1`, the IC50 in the series with HeLa was 28.4 µM; in series [1] it was 36.1 µM; in the series with MCF7 it was 56.3 µM; in [2], 9.62 µM; in the series with A549, 43 µM.
The matching figures for `COc1cc(/C=C/c2ccc(-n3[se]c4cc(OC)c(OC)cc4c3=O)cc2)cc(OC)c1`: 31.6 µM, 25.4 µM, 88.9 µM, 7.53 µM and 52.6 µM.
On to `COc1ccc(/C=C/c2ccc(-n3[se]c4ccc(Cl)cc4c3=O)cc2)cc1OC`, for which the inhibition in the series listed under Rattus norvegicus [3] was determined as 38.4%. Moreover, the IC50 with HeLa worked out at 12 µM; in series [1] it was 6.13 µM; in the series on MCF7, 16.9 µM; in the series with A549 it was 6.95 µM. For the same compound, the solubility in series [4] is under 20 µM.
Take `COc1cc(/C=C/c2ccc(-n3[se]c4ccc(Cl)cc4c3=O)cc2)cc(OC)c1`: the inhibition in the series listed under Rattus norvegicus [3] worked out at 31.2%. The compound also showed a solubility in series [4] of under 50 µM.
